Entries after “also recorded” stand apart in the source; their conditions may differ.
Columns and labels:
[1] = test system: taxotere-induced peripheral neuropathy model mice; assay: Evaluation of neurological symptoms in taxotere-induced peripheral neuropathy model; format: in vivo, ICR mice
Procedure: ICR mice (male) were purchased at 5 weeks of age and handled for 1 week before use in the experiment.
As an anticancer agent, taxotere (Taxotere injection, Aventis Pharma, 1V 80 mg 2 mL) was used.
Using the attached solution and physiological saline, taxotere was adjusted to a volume of about 0.15 ml per 10 g mouse body weight (45 mg/kg iv, 90 mg/kg ip). The vehicle serving as a control (0 mg/kg) was prepared in the same manner using Tween-80 and physiological saline for iv administration.
On the other hand, recombinant human EPO under the trade name Epogin (Chugai Pharmaceutical Co., Ltd., Japan) was adjusted using a solution (containing […] NaCl, 0.125% histidine-HCl and 0.005% Tween 80 in 10 mmol/L phosphate buffer (pH 6.0)) and administered at 720 U/head/week. The administration schedule was as follows: taxotere was given at 0 or 45 mg/kg iv (via the tail vein) or at 90 mg/kg ip, once a week for 3 weeks (3 times in total on days 0, 7 and 14), while the vehicle and EPO (720 U/head) were each given sc (into the dorsal neck region) 3 hours before taxotere treatment.
Continuous treatment with taxotere will induce typical hind leg crossing in mice when hanged by their tails. If the symptoms reach an advanced stage, the same crossing response will also occur in the forelegs, thereby leading to dysbasia. Such a symptom was used as an indicator to evaluate the mice as follows: 0=no symptom; 0.5=abnormal movement without clear flexion; 1=flexion in one hind leg; 2=hind leg flexion or extension lasting for 2 seconds or longer; 3=dysbasia. Scoring was accomplished by blind evaluation of symptoms.

[2] = test system: sciatic nerve axons; assay: Histopathological evaluation of sciatic nerves (toluidine blue staining); format: in vivo, ICR mice
Procedure: ICR mice (male) were purchased at 5 weeks of age and handled for 1 week before use in the experiment. As an anticancer agent, taxotere (Taxotere injection, Aventis Pharma, 1V 80 mg 2 mL) was used. […] The vehicle serving as a control (0 mg/kg) was prepared in the same manner using Tween-80 and physiological saline for iv administration. On the other hand, recombinant human EPO under the trade name Epogin (Chugai Pharmaceutical Co., Ltd., Japan) was adjusted using a solution (containing […] NaCl, 0.125% histidine-HCl and 0.005% Tween 80 in 10 mmol/L phosphate buffer (pH 6.0)) and administered at 720 U/head/week. The administration schedule was as follows: […], once a week for 3 weeks (3 times in total on days 0, 7 and 14), while the vehicle and EPO (720 U/head) were each given sc (into the dorsal neck region) 3 hours before taxotere treatment. Muscle tissue was peeled off to expose sciatic nerves. Under this state, a glutaraldehyde fixing solution (stored on ice immediately before use) was added to immerse all the sciatic nerves. After incubation for 10 minutes, the sciatic nerves were isolated and gently shaken for 1 hour in a shaker containing a glutaraldehyde fixing solution. The sciatic nerves were then embedded in a standard manner into a resin for electron microscopic examination. Toluidine blue-stained sections were prepared and evaluated for the degree of axonal degeneration at three levels: none (−), mild (+) and moderate (++).

[3] = test system: streptozotocin-induced diabetes model rats; conditions: streptozotocin-induced diabetes model rats (Bianchi et al., 2004); cited from earlier work
[4] = test system: DRG (dorsal root ganglia); conditions: caused by addition of HIV envelop glycoprotein gp120 (Keswanai et al., 2004); cited from earlier work
[5] = test system: cisplatin-treated cancer patients; conditions: EPO-treated group (Mangiameli et al., 2002); cited from earlier work
[6] = taxotere 90 mg/kg ip group (vehicle)

Time at which neurological symptoms developed after the treatment ([1]; taxotere 45 mg/kg iv once a week) | Time at which neurological symptoms developed after the treatment ([1]; taxotere 90 mg/kg ip once a week) | Degree of axonal degeneration: number of animals at mild (+) [2, 6] | Degree of axonal degeneration: number of animals at moderate (++) [2, 6] | Degree of axonal degeneration: number of animals at ± [2, 6] | Molecule | Histological change of sciatic nerve axons, in words ([2]; groups receiving taxotere) | Pain [3] | Reduced nerve conduction velocity [3] | Effect on neurological symptoms ([1]; neuropathy induced by taxotere 90 mg/kg ip, EPO 720 U/head sc, after 10 days (FIG. 2)) | Degeneration levels of sciatic nerve axons, range of the group ([2]; EPO group upon taxotere 90 mg/kg ip treatment) | Effect on axonal degeneration of sciatic nerves, in words ([2]; EPO versus vehicle, taxotere 90 mg/kg ip) | Cell loss in DRG [4] | Neurological symptom scores [5]
around 8 days | around 8 days | 1 | 3 | 3 | CC(=O)O[C@@]12CO[C@@H]1C[C@H](O)[C@@]1(C)C(=O)[C@H](O)C3=C(C)[C@@H](OC(=O)[C@H](O)[C@@H](NC(=O)OC(C)(C)C)c4ccccc4)C[C@@](O)([C@@H](OC(=O)c4ccccc4)[C@H]21)C3(C)C [taxotere] | diameter reduction and deformation of axons, which were indicative of clear axonal degeneration | – | – | – | – | – | – | –
– | – | – | – | – | erythropoietin [EPO] | – | improves | improves reduced nerve conduction velocity | reduce significantly the neurological symptoms; also recorded: tended to suppress exacerbation of neurological symptoms | ± to mild (+) | tendency to alleviate neuropathy; also recorded: tended to suppress exacerbation | prevents cell loss in DRG | significantly improved

— patent US20100234278A1, “PROPHYLACTIC AND/OR THERAPEUTIC AGENTS FOR PERIPHERAL NEUROPATHY” (priority 2006, published 2010)
